Data on one substance can be found in US20090098050A1, “CALCIUM BINDING PEPTIDES” (THE REGENTS OF THE UNVERSITY OF CALIFORNIA, priority 2005, published 2009).

A short description of experiment [1]: Nucleation of hydroxyapatite on tooth enamel and dentin (SEM). Also noted: species or system human. As to conditions: 12.5 μM peptide, SBFn 4 hours then SBFg. Here is the method:
FIG. 5: Nucleation of hydroxyapatite on enamel (top) and dentin (bottom) surfaces. Surfaces were prepared and treated as described in Example 6 and as indicated by the labels, followed by imaging using Scanning Electron Microscopy. The upper group (top two rows) represents enamel samples, while the lower group (bottom two rows) represents dentin samples. Within each group, the top row represents samples that were not demineralized prior to treatment, and the bottom row represents samples that were demineralized by treatment with phosphoric acid. Scanning Electron Micrographs are shown, scale bars=[…]. Left column: samples that were not exposed to any treatment prior to nucleation and crystal growth. Center column: samples that were exposed to buffer only prior to nucleation and crystal growth. Right column: samples that were exposed to 12.5 μM 8DSS peptide prior to nucleation and crystal growth. Crystal growth indicates early nucleation. To determine whether applying DSS to various preparations of tissue promoted HA nucleation, which could ultimately lead to tissue remineralization, sagittally sectioned adult human teeth (obtained after extraction during normal clinical practice) were polished using a Streurs grinding wheel, and prepared for nucleation experiments. […]

Experiment [2] is described as follows: Tissue specific binding of DSS peptides and variants in human teeth (CLSM). The following applies: 12.5 μM labeled peptide. Here is the method: FIG. 8: Fluorescence micrographs showing tissue specificity in the binding of DSS peptides and variants. Adult human teeth were exposed to 12.5 μM 5(6)-carboxyfluorescein-labeled peptide without demineralization, washed extensively, and imaged by CLSM. For each section, multiple scans were collected and assembled in an automated mode to generate panels of images representing an area of 13×13 mm, sufficient in most cases to encompass the whole section. The peptides used for each section are labeled beneath each panel, and within each panel the tooth is oriented with the root toward the top of the image and the crown toward the bottom. Tissue layers are labeled as follows: RTD=Root Tip Dentin; CPD=Circumpulpal Dentin; MD=Mantle Dentin; P=Pulp Cavity Wall; DEJ=Dentin-Enamel Junction; E=Enamel; BE=Basal Enamel; CE=Cortical Enamel; CL=Carious Lesion; PB=Periodontal Bone.
In order to investigate the tissue specificity of DSS peptide binding to tooth tissue, sections of human teeth were exposed to DSS peptides and variants, then imaged by CLSM as described in Example 2. The peptides utilized for these experiments were 8DSS, 8ASS, 8DAA, 8NAA, 4DSS, 4ESS, 4NSS, 4DTT, 4ETT, 4NTT, and 6DSS. Sagittal sections of human teeth extracted during normal clinical practice were polished and then incubated for ten minutes in a solution of the appropriate 5(6) carboxyfluorescein-labeled peptide (12.5 μM) containing 10 mM NaCl and 50 mM HEPES, pH 7.0. Control samples were prepared without peptide. Samples were washed extensively after treatment and imaged by CLSM using blue laser illumination (λ=488 nm) and a FITC emission filter, with identical camera and microscope settings for each sample. For each section, multiple scans were collected and assembled in an automated mode to generate panels of images representing an area of 13×13 mm, sufficient in most cases to encompass the whole section. […] Significant binding was also seen to the edges of the pulp cavity.

Experiment [3] is described as follows: Tissue specificity of binding in demineralized and nondemineralized teeth (CLSM). The following applies: 12.5 μM labeled peptide. More on the design: species or system human. How it is done: FIG. 6: Tissue specificity of 8DSS peptide binding and its dependence on mineralization state. Demineralized and nondemineralized human teeth samples were incubated with 12.5 μM 5(6)-carboxyfluorescein-labeled 8DSS peptide as described in Example 9, and sections were rinsed and imaged by CLSM. […] The dentin-enamel junction, labeled DEJ, is clearly demarcated in both cases.
Sagitally sectioned human teeth were either demineralized by incubation with 0.5 M EDTA for 15 minutes or left nondemineralized. Samples were then incubated for ten minutes in a solution of 12.5 μM 5(6)-carboxyfluorescein-labeled 8DSS, 10 mM NaCl, and 50 mM HEPES, pH 7.0. Control samples were incubated without peptide. Sections were then rinsed and imaged by CLSM using identical laser and camera settings.

Regarding “8DSS: peptide containing eight Asp-Ser-Ser (DSS) repeats, SEQ ID NO:15 (DSSDSSDSSDSSDSSDSSDSSDSS; calcium binding peptide containing eight DSS repeats, 8DSS)”, in experiment [1], the “Crystal growth (nucleation) on demineralized enamel” value is “significant crystal growth” and the “Crystal growth (nucleation) on nondemineralized dentin” value is listed as “most significant growth”. For the same substance, the “Tissue binding pattern in healthy tooth section” value in experiment [2] (nondemineralized teeth) is “bound primarily to the mantle dentin”. In addition, in experiment [2] (ten minutes, identical settings), the “Level of binding (staining) to tooth surfaces” value is reported as “greatest levels of staining”. The “Binding pattern in demineralized tooth tissue” value in experiment [3] (demineralized sample) is listed as “Primary binding is to the demineralized enamel (E) with little binding to the dentin (D)”. Also, the “Binding pattern in nondemineralized tooth tissue” value in experiment [3] (nondemineralized sample) was “primary binding is to the dentin (D) with little or no binding to the enamel (E)”.
